Source: publication PMC8851638 (ACS Omega, 2022)
In brackets after ≈: the same amount, converted by molar mass. Several values for one entry are separate records, joined by “and”; a condition that tells them apart may be missing. Identical values can stand only once.

Legend:
S. aureus (MDR00231) [1] = assay: Agar well-diffusion antimicrobial sensitivity assay; format: cell-based, Staphylococcus aureus; conditions: Staphylococcus aureus, read-out: Inhibition Zone (IZ)
[2] = test system: S. epidermidis (MDR00223); assay: as above; format: cell-based, Staphylococcus epidermidis; conditions: Staphylococcus epidermidis, read-out: Inhibition Zone (IZ)
E. coli (MDR00501) [3] = assay: as above; format: cell-based; conditions: Escherichia coli, read-out: Inhibition Zone (IZ)
[4] = test system: C. albicans100 (MDR00100); assay: as above; format: cell-based, Candida albicans; conditions: Candida albicans, read-out: Inhibition Zone (IZ)
[5] = test system: C. albicans200 (MDR00200); assay: as above; format: cell-based, Candida albicans; conditions: Candida albicans, read-out: Inhibition Zone (IZ)
S. aureus (MDR00231) [6] = assay: MIC and MBC by broth microdilution; format: cell-based, Staphylococcus aureus
[7] = test system: S. epidermidis (MDR00223); assay: MIC and MBC by broth microdilution; format: cell-based, Staphylococcus epidermidis
B. subtilis (MDR00423) = assay: MIC and MBC by broth microdilution; format: cell-based; conditions: B. subtilis; ratio in parentheses
E. coli (MDR00501) [8] = assay: MIC and MBC by broth microdilution; format: cell-based
A. baumannii (MDR00521) = assay: MIC and MBC by broth microdilution; format: cell-based; conditions: ratio in parentheses
K. pneumoniae (MDR00244) = assay: MIC and MBC by broth microdilution; format: cell-based; conditions: ratio in parentheses
[9] = test system: C. albicans100 (MDR00100); assay: MIC and MFC by broth microdilution; format: cell-based, Candida albicans
[10] = test system: C. albicans200 (MDR00200); assay: MIC and MFC by broth microdilution; format: cell-based, Candida albicans
S. aureus biofilm = assay: Staphylococcus biofilm mass reduction; format: cell-based; conditions: at their MIC
S. epidermidis biofilm = assay: Staphylococcus biofilm mass reduction; format: cell-based; conditions: at their MIC
S. aureus = assay: Single-step resistance selection; format: cell-based, Staphylococcus aureus; conditions: 4 × MIC, 48 h
S. epidermidis = assay: Single-step resistance selection; format: cell-based, Staphylococcus epidermidis; conditions: 4 × MIC, 48 h
B. subtilis = assay: Single-step resistance selection; format: cell-based; conditions: 4 × MIC, 48 h
E. coli = assay: Single-step resistance selection; format: cell-based; conditions: 4 × MIC, 48 h
A. baumannii [11] = assay: Single-step resistance selection; format: cell-based; conditions: 4 × MIC, 48 h
K. pneumoniae = assay: Single-step resistance selection; format: cell-based; conditions: 4 × MIC, 48 h
C. albicans100 [12] = assay: Single-step resistance selection; format: cell-based, Candida albicans; conditions: 4 × MIC, 48 h
C. albicans200 [13] = assay: Single-step resistance selection; format: cell-based, Candida albicans; conditions: 4 × MIC, 48 h
A. baumannii [14] = assay: Checkerboard combination assay with Ciprofloxacin; format: cell-based
C. albicans100 [15] = assay: Checkerboard combination assay with Ketoconazole; format: cell-based, Candida albicans
C. albicans200 [16] = assay: Checkerboard combination assay with Ketoconazole; format: cell-based, Candida albicans
RBCs = assay: Hemolytic assay; format: cell-based; conditions: human RBCs; compounds 1.0 mg/mL; Triton X-100 0.1% v/v; 37 °C, 35 min
E. coli DNA gyrase = E. coli DNA gyrase (Escherichia coli, UniProt P0AES4+P0AES6); assay: DNA gyrase inhibition; format: biochemical
E. coli DNA gyrase, sequence (P0AES4 whole entry, one chain of several): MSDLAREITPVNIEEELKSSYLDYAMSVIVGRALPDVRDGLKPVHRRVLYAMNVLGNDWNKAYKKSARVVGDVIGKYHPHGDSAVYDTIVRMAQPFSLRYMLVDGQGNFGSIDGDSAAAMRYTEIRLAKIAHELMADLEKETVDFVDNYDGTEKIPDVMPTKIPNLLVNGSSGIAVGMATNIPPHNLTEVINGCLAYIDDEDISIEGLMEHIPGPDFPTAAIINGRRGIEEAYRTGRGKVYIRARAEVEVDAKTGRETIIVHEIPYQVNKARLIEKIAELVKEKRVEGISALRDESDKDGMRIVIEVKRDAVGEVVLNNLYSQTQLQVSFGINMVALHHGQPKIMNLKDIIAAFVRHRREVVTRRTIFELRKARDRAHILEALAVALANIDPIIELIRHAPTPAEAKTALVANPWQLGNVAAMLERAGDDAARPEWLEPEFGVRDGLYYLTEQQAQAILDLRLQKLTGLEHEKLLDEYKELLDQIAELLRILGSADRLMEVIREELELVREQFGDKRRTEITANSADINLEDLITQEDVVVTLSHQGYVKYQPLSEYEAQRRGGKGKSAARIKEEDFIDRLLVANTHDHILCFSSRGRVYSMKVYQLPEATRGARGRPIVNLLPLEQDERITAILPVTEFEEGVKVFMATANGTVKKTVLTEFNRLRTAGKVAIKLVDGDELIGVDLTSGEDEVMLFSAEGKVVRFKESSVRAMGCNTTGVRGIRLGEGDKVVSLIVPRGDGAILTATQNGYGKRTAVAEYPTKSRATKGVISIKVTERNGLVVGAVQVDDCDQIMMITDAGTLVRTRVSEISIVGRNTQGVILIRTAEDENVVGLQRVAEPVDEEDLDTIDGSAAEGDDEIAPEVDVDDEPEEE

[17] = target: T1, dihydrofolate reductase (DHFR) (Homo sapiens, UniProt P00374); assay: DHFR inhibition; format: biochemical
T1 sequence (P00374 1-187): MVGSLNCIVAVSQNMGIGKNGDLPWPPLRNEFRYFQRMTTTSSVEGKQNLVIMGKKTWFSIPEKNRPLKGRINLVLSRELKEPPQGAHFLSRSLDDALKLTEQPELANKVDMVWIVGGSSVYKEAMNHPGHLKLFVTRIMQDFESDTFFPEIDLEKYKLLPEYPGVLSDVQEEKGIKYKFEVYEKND

[18] = In vitro cytotoxicity on normal cell line; format: cell-based, mouse; conditions: mouse, BNL normal liver cells
[19] = test system: BNL: mouse normal liver cells; assay: In vitro cytotoxicity on normal cell line; format: cell-based
[20] = In vitro cytotoxicity on normal cell line; format: cell-based, green monkey; conditions: green monkey, Vero kidney cells
[21] = test system: Vero: green monkey kidney; assay: In vitro cytotoxicity on normal cell line; format: cell-based
[22] = In vitro cytotoxicity on normal cell line; format: cell-based, rat; conditions: rat, H9C2 heart/myocardium cells
[23] = test system: H9C2: rat heart/myocardium; assay: In vitro cytotoxicity on normal cell line; format: cell-based
Gram-negative bacteria = assay: MIC broth microdilution, Gram-negative panel; format: cell-based; conditions: Gram-negative bacteria used in this study
[24] = test system: clinical pathogenic isolates; assay: Single-step resistance selection, whole panel; format: cell-based; conditions: 4 × MIC
[25] = Candida albicans, read-out: MIC (mean ± SEM)

Question: Which zone of inhibition at 100000 µg/mL (S. aureus (MDR00231) [1]) does the source give for `Cc1c(NN=C(C#N)C2=NC(=O)CS2)c(=O)n(-c2ccccc2)n1C` [Compound 13, N-(1,5-Dimethyl-3-oxo-2-phenyl-2,3-dihydro-1H-pyrazol-4-yl)-4-oxo-4,5-dihydrothiazole-2-carbohydrazonoyl cyanide] here?
Answer: 27 ± 0.82 mm

Question: And the zone of inhibition at 100000 µg/mL [2]?
Answer: 25 ± 0.45 mm

Question: What about the zone of inhibition at 100000 µg/mL (E. coli (MDR00501) [3]) of the same compound?
Answer: 28 ± 0.55 mm

Question: And the zone of inhibition at 100000 µg/mL [4]?
Answer: 29 ± 0.25 mm

Question: What about the zone of inhibition at 100000 µg/mL [5] of the same compound?
Answer: 28 ± 0.36 mm

Question: And the MBC/MIC (S. aureus (MDR00231) [6]; S. aureus, ratio in parentheses)?
Answer: 1

Question: And the MIC (S. aureus (MDR00231) [6]; Staphylococcus aureus, read-out: MIC (mean ± SEM))?
Answer: 0.98 ± 0.2 µg/mL (≈ 2.77 µM)

Question: And the MBC/MIC ([7]; S. epidermidis, ratio in parentheses)?
Answer: 1

Question: And the MIC ([7]; Staphylococcus epidermidis, read-out: MIC (mean ± SEM))?
Answer: 0.99 ± 0.3 µg/mL (≈ 2.79 µM)

Question: What about the MBC/MIC (B. subtilis (MDR00423)) of the same compound?
Answer: 2

Question: And the MBC/MIC (E. coli (MDR00501) [8]; E. coli, ratio in parentheses)?
Answer: 0.5

Question: And the MIC (E. coli (MDR00501) [8]; Escherichia coli, read-out: MIC (mean ± SEM))?
Answer: 0.49 ± 0.2 µg/mL (≈ 1.38 µM)

Question: What about the MBC/MIC (A. baumannii (MDR00521)) of the same compound?
Answer: 0.5

Question: What about the MBC/MIC (K. pneumoniae (MDR00244)) of the same compound?
Answer: 2

Question: And the MFC/MIC ([9]; C. albicans100, ratio in parentheses)?
Answer: 2

Question: What about the MIC [9, 25] of the same compound?
Answer: 0.99 ± 0.2 µg/mL (≈ 2.79 µM)

Question: And the MFC/MIC ([10]; C. albicans200, ratio in parentheses)?
Answer: 2

Question: What about the MIC [10, 25] of the same compound?
Answer: 0.98 ± 0.3 µg/mL (≈ 2.77 µM)

Question: What about the “reduction of biofilm formation” value (S. aureus biofilm) of the same compound?
Answer: 51.2%

Question: What about the “reduction of biofilm formation” value (S. epidermidis biofilm) of the same compound?
Answer: 47.8%

Question: What about the “Single-step resistance frequency (mutation frequency)” value (shortened to “Single-step resistance frequency”) (S. aureus) of the same compound?
Answer: 2.73 × 10^–8

Question: What about the “Single-step resistance frequency” value (S. epidermidis) of the same compound?
Answer: 4.15 × 10^–8

Question: And the “Single-step resistance frequency” value (B. subtilis)?
Answer: 1.66 × 10^–9

Question: What about the “Single-step resistance frequency” value (E. coli) of the same compound?
Answer: 2.90 × 10^–8

Question: And the “Single-step resistance frequency” value (A. baumannii [11])?
Answer: 2.71 × 10^–7

Question: What about the “Single-step resistance frequency” value (K. pneumoniae) of the same compound?
Answer: 3.22 × 10^–8

Question: And the “Single-step resistance frequency” value (C. albicans100 [12])?
Answer: 2.92 × 10^–9

Question: What about the “Single-step resistance frequency” value (C. albicans200 [13]) of the same compound?
Answer: 3.20 × 10^–8

Question: What about the combination effect (A. baumannii [14]) of the same compound?
Answer: S (S: synergism)

Question: What about the “fractional inhibitory concentration index (FICI)” value (A. baumannii [14]) of the same compound?
Answer: 0.5

Question: And the combination effect (C. albicans100 [15])?
Answer: S (S: synergism)

Question: What about the “fractional inhibitory concentration index (FICI)” value (C. albicans100 [15]) of the same compound?
Answer: 0.5

Question: And the combination effect (C. albicans200 [16])?
Answer: S (S: synergism)

Question: And the “fractional inhibitory concentration index (FICI)” value (C. albicans200 [16])?
Answer: 0.5

Question: What about the “%lysis of RBCs” value (RBCs) of the same compound?
Answer: 15.22% and 15.22 ± 0.43%

Question: What about the IC50 (E. coli DNA gyrase) of the same compound?
Answer: 31.64 ± 0.17 µM

Question: And the IC50 [17]?
Answer: 2.67 ± 0.14 µM

Question: And the IC50 at 72 h [18]?
Answer: 79.5 ± 1.67 µM

Question: What about the “Selectivity index against DHFR” value ([19]; IC50 of BNL / IC50 of DHFR) of the same compound?
Answer: 29.78

Question: What about the “Selectivity index against DNA gyrase” value ([19]; IC50 of BNL / IC50 of DNA gyrase) of the same compound?
Answer: 2.51

Question: And the IC50 at 72 h [20]?
Answer: 74.8 ± 2.12 µM

Question: And the “Selectivity index against DHFR” value ([21]; IC50 of Vero / IC50 of DHFR)?
Answer: 28.02

Question: What about the “Selectivity index against DNA gyrase” value ([21]; IC50 of Vero / IC50 of DNA gyrase) of the same compound?
Answer: 2.36

Question: What about the IC50 at 72 h [22] of the same compound?
Answer: 61.6 ± 1.64 µM

Question: What about the “Selectivity index against DHFR” value ([23]; IC50 of H9C2 / IC50 of DHFR) of the same compound?
Answer: 23.06

Question: And the “Selectivity index against DNA gyrase” value ([23]; IC50 of H9C2 / IC50 of DNA gyrase)?
Answer: 1.94

Question: What about the “MIC, range over panel” value (Gram-negative bacteria) of the same compound?
Answer: 0.43 to 0.98 µg/mL

Question: And the “mutation frequency, range over panel” value [24]?
Answer: 2.71 × 10^–7 to 2.92 × 10^–9
